Assay results taken from patent US6706663B2, “Herbicidal 3-heterocyclic substituted benzisothiazole and benzisoxazole compounds” (Wyeth, priority 2000, dated 2004).

Tests used:
[1] = test system: ORYSAT (Rice, Tebonnet); assay: Preemergence herbicidal evaluation; type: in vivo, Oryza sativa, (L.) Tebonnet; details: rated 4-5 weeks after treatment
[2] = test system: SETVI (Setaria viridis); assay: Postemergence herbicidal evaluation; type: in vivo, (L.) Beau; details: postemergence
How it was run: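 First, seedlings are raised in flats for about two weeks. Next, compound dispersed in 50/50 acetone/water with 0.5% TWEEN 20 is sprayed at 40 psi to deliver about 0.0040–1.000 kg/ha. Plants are then maintained in the greenhouse and rated 0-9 after four to five weeks.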

[3] = test system: MOOVA (Monochoria vaginalis); assay: Flooded paddy, preemergence weed control; type: in vivo, Presl.; details: rated 3-4 weeks after treatment, 0-9 rating scale
How it was run: (§1)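 Seeds or propagules were planted in the top 0.5 cm of silt loam soil and kept flooded 1.5–3 cm above the surface throughout, then held in the greenhouse. Injury was rated visually on a 0–9 scale against untreated controls, covering stand, vigor, malformation, size and chlorosis.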

[4] = test system: GALAP (Galium aparine); assay: Preemergence herbicidal evaluation; type: in vivo; details: rated 4-5 weeks after treatment
How it was run: (§2)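 Visual 0–9 rating versus control (stand, vigor, malformation, size, chlorosis, overall appearance), scored four to five weeks post-treatment. Preemergence spray of aqueous acetone solution onto freshly seeded soil cups; plants grown under conventional greenhouse care.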

[5] = test system: SAGPY (Sagittaria pygmaea); assay: Flooded paddy, preemergence weed control; type: in vivo, L.; details: rated 3-4 weeks after treatment, 0-9 rating scale
How it was run: as §1

[6] = test system: GALAP (Galium aparine); assay: Postemergence herbicidal evaluation; type: in vivo; details: postemergence
How it was run: (§3)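 Seedlings grown about two weeks in flats, sprayed, then kept under standard greenhouse care. Rated visually 4–5 weeks after treatment on a 0–9 scale (stand, vigour, malformation, size, chlorosis, overall appearance) relative to untreated control; repeat tests averaged.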

[7] = test system: AMBEL (Ambrosia artemisifolia); assay: Preemergence herbicidal evaluation; type: in vivo, L.; details: rated 4-5 weeks after treatment
How it was run: as §2

[8] = test system: CHEAL (Chenopodium album); assay: Preemergence herbicidal evaluation; type: in vivo, L.; details: rated 4-5 weeks after treatment
How it was run: as §2

[9] = test system: CASOB (Cassia obtusifolia); assay: Preemergence herbicidal evaluation; type: in vivo, L.; details: rated 4-5 weeks after treatment
How it was run: as §2

[10] = test system: TRZAWR (Wheat, Winter, cv Riband); assay: Postemergence herbicidal evaluation; type: in vivo, Triticum aestivum; details: postemergence
How it was run: as §3

[11] = test system: ORYSAT (Rice, Tebonnet); assay: Postemergence herbicidal evaluation; type: in vivo, Oryza sativa, (L.) Tebonnet; details: postemergence
How it was run: as §3

[12] = test system: ECHCG (Echinochloa crus-galli); assay: Preemergence herbicidal evaluation; type: in vivo, (L.) Beau; details: rated 4-5 weeks after treatment
How it was run: as §2

[13] = test system: SETVI (Setaria viridis); assay: Preemergence herbicidal evaluation; type: in vivo, (L.) Beau; details: rated 4-5 weeks after treatment
How it was run: as §2

[14] = test system: CYPIR (Cyperus iria); assay: Flooded paddy, preemergence weed control; type: in vivo; details: rated 3-4 weeks after treatment, 0-9 rating scale
How it was run: as §1

[15] = test system: ABUTH (Abutilon theophrasti); assay: Postemergence herbicidal evaluation; type: in vivo, Medic.; details: postemergence
How it was run: as §3

[16] = test system: IPOHE (Ipomoea hederacea); assay: Postemergence herbicidal evaluation; type: in vivo, (L.) Jacq.; details: postemergence
How it was run: as §3

[17] = test system: AMBEL (Ambrosia artemisifolia); assay: Postemergence herbicidal evaluation; type: in vivo, L.; details: postemergence
How it was run: as §3

[18] = test system: CHEAL (Chenopodium album); assay: Postemergence herbicidal evaluation; type: in vivo, L.; details: postemergence
How it was run: as §3

[19] = test system: CASOB (Cassia obtusifolia); assay: Postemergence herbicidal evaluation; type: in vivo, L.; details: postemergence
How it was run: as §3

In the case of `Cn1c(C(F)(F)F)cc(=O)n(-c2ccc3snc(C4OCC(CCl)O4)c3c2)c1=O` (stereo not drawn) [Compound 72, 3-[3-[4-(chloromethyl)-1,3-dioxolan-2-yl]-1,2-benzisothiazol-5-yl]-1-methyl-6-(trifluoromethyl)uracil], the “Preemergence herbicidal rating ORYSAT” value ([1]; Rate 0.0620 kg/ha) is reported as 8.5, the “Preemergence herbicidal rating ORYSAT” value ([1]; Rate 0.1250 kg/ha) is reported as 8.5 and the “Preemergence herbicidal rating ORYSAT” value ([1]; Rate 0.2500 kg/ha) is reported as 9.0. For the same compound, the SETVI herbicidal rating ([2]; rate 0.0320 kg/ha) was 8.0, the SETVI herbicidal rating ([2]; rate 0.0620 kg/ha) was 8.0 and the “herbicidal rating, MOOVA” value ([3]; rate 0.0080 kg/ha) was 0.0. The “herbicidal rating, MOOVA” value ([3]; rate 0.0320 kg/ha) was 9.0, the “herbicidal rating, MOOVA” value ([3]; rate 0.1250 kg/ha) was 9.0 and the “Preemergence herbicidal rating GALAP” value ([4]; Rate 0.0620 kg/ha) was 8.0. For the same compound, the “Preemergence herbicidal rating GALAP” value ([4]; Rate 0.1250 kg/ha) was 9.0, the “Preemergence herbicidal rating GALAP” value ([4]; Rate 0.2500 kg/ha) was 9.0 and the “herbicidal rating, SAGPY” value ([5]; rate 0.0080 kg/ha) was 0.0. For the same compound, the “herbicidal rating, SAGPY” value ([5]; rate 0.0320 kg/ha) was 0.0, the “herbicidal rating, SAGPY” value ([5]; rate 0.1250 kg/ha) was 8.0 and the GALAP herbicidal rating ([6]; rate 0.0320 kg/ha) was 9.0. The GALAP herbicidal rating ([6]; rate 0.0620 kg/ha) was 9.0, the “Preemergence herbicidal rating AMBEL” value ([7]; Rate 0.0620 kg/ha) was 9.0 and the “Preemergence herbicidal rating AMBEL” value ([7]; Rate 0.1250 kg/ha) was 9.0. The “Preemergence herbicidal rating AMBEL” value ([7]; Rate 0.2500 kg/ha) was 9.0, the “Preemergence herbicidal rating CHEAL” value ([8]; Rate 0.0620 kg/ha) was 9.0 and the “Preemergence herbicidal rating CHEAL” value ([8]; Rate 0.1250 kg/ha) was 9.0. The “Preemergence herbicidal rating CHEAL” value ([8]; Rate 0.2500 kg/ha) was 9.0, the “Preemergence herbicidal rating CASOB” value ([9]; Rate 0.0620 kg/ha) was 3.0 and the “Preemergence herbicidal rating CASOB” value ([9]; Rate 0.1250 kg/ha) was 6.5. For the same compound, the “Preemergence herbicidal rating CASOB” value ([9]; Rate 0.2500 kg/ha) was 8.0, the TRZAWR herbicidal rating ([10]; rate 0.0320 kg/ha) was 3.5 and the TRZAWR herbicidal rating ([10]; rate 0.0620 kg/ha) was 4.5. For the same compound, the ORYSAT herbicidal rating ([11]; rate 0.0320 kg/ha) was 4.0, the ORYSAT herbicidal rating ([11]; rate 0.0620 kg/ha) was 4.5 and the “Preemergence herbicidal rating ECHCG” value ([12]; Rate 0.0620 kg/ha) was 9.0. The “Preemergence herbicidal rating ECHCG” value ([12]; Rate 0.1250 kg/ha) was 9.0, the “Preemergence herbicidal rating ECHCG” value ([12]; Rate 0.2500 kg/ha) was 9.0 and the “Preemergence herbicidal rating SETVI” value ([13]; Rate 0.0620 kg/ha) was 9.0. For the same compound, the “Preemergence herbicidal rating SETVI” value ([13]; Rate 0.1250 kg/ha) was 9.0, the “Preemergence herbicidal rating SETVI” value ([13]; Rate 0.2500 kg/ha) was 9.0 and the “herbicidal rating, CYPIR” value ([14]; rate 0.0080 kg/ha) was 0.0. The “herbicidal rating, CYPIR” value ([14]; rate 0.0320 kg/ha) was 3.0, the “herbicidal rating, CYPIR” value ([14]; rate 0.1250 kg/ha) was 9.0 and the ABUTH herbicidal rating ([15]; rate 0.0320 kg/ha) was 9.0. The ABUTH herbicidal rating ([15]; rate 0.0620 kg/ha) was 9.0, the IPOHE herbicidal rating ([16]; rate 0.0320 kg/ha) was 9.0 and the IPOHE herbicidal rating ([16]; rate 0.0620 kg/ha) was 9.0. It also gave an AMBEL herbicidal rating ([17]; rate 0.0320 kg/ha) of 9.0, an AMBEL herbicidal rating ([17]; rate 0.0620 kg/ha) of 9.0 and a CHEAL herbicidal rating ([18]; rate 0.0320 kg/ha) of 9.0. For the same compound, the CHEAL herbicidal rating ([18]; rate 0.0620 kg/ha) was 9.0, the CASOB herbicidal rating ([19]; rate 0.0320 kg/ha) was 5.0 and the CASOB herbicidal rating ([19]; rate 0.0620 kg/ha) was 5.0.
With `Cn1c(C(F)(F)F)cc(=O)n(-c2ccc3snc(C4OCC(CO)O4)c3c2)c1=O` (stereo not drawn) [Compound 73, 3-[3-[4-(hydroxymethyl)-1,3-dioxolan-2-yl]-1,2-benzisothiazol-5-yl]-1-methyl-6-(trifluoromethyl)uracil] the “Preemergence herbicidal rating ORYSAT” value ([1]; Rate 0.0620 kg/ha) was 6.0, the “Preemergence herbicidal rating ORYSAT” value ([1]; Rate 0.1250 kg/ha) was 7.0 and the “Preemergence herbicidal rating ORYSAT” value ([1]; Rate 0.2500 kg/ha) was 8.0. For the same compound, the SETVI herbicidal rating ([2]; rate 0.0320 kg/ha) was 4.0, the SETVI herbicidal rating ([2]; rate 0.0620 kg/ha) was 8.0 and the “herbicidal rating, MOOVA” value ([3]; rate 0.0080 kg/ha) was 0.0. For the same compound, the “herbicidal rating, MOOVA” value ([3]; rate 0.0320 kg/ha) was 0.0, the “herbicidal rating, MOOVA” value ([3]; rate 0.1250 kg/ha) was 9.0 and the “Preemergence herbicidal rating GALAP” value ([4]; Rate 0.0620 kg/ha) was 8.0. The “Preemergence herbicidal rating GALAP” value ([4]; Rate 0.1250 kg/ha) was 8.0, the “Preemergence herbicidal rating GALAP” value ([4]; Rate 0.2500 kg/ha) was 9.0 and the “herbicidal rating, SAGPY” value ([5]; rate 0.0080 kg/ha) was 0.0. The “herbicidal rating, SAGPY” value ([5]; rate 0.0320 kg/ha) was 0.0, the “herbicidal rating, SAGPY” value ([5]; rate 0.1250 kg/ha) was 3.0 and the GALAP herbicidal rating ([6]; rate 0.0320 kg/ha) was 9.0. For the same compound, the GALAP herbicidal rating ([6]; rate 0.0620 kg/ha) was 9.0, the “Preemergence herbicidal rating AMBEL” value ([7]; Rate 0.0620 kg/ha) was 8.5 and the “Preemergence herbicidal rating AMBEL” value ([7]; Rate 0.1250 kg/ha) was 9.0. For the same compound, the “Preemergence herbicidal rating AMBEL” value ([7]; Rate 0.2500 kg/ha) was 9.0, the “Preemergence herbicidal rating CHEAL” value ([8]; Rate 0.0620 kg/ha) was 9.0 and the “Preemergence herbicidal rating CHEAL” value ([8]; Rate 0.1250 kg/ha) was 9.0. For the same compound, the “Preemergence herbicidal rating CHEAL” value ([8]; Rate 0.2500 kg/ha) was 9.0, the “Preemergence herbicidal rating CASOB” value ([9]; Rate 0.0620 kg/ha) was 2.5 and the “Preemergence herbicidal rating CASOB” value ([9]; Rate 0.1250 kg/ha) was 6.0. The “Preemergence herbicidal rating CASOB” value ([9]; Rate 0.2500 kg/ha) was 8.0, the TRZAWR herbicidal rating ([10]; rate 0.0320 kg/ha) was 3.5 and the TRZAWR herbicidal rating ([10]; rate 0.0620 kg/ha) was 4.0. The ORYSAT herbicidal rating ([11]; rate 0.0320 kg/ha) was 3.0, the ORYSAT herbicidal rating ([11]; rate 0.0620 kg/ha) was 4.0 and the “Preemergence herbicidal rating ECHCG” value ([12]; Rate 0.0620 kg/ha) was 7.5. For the same compound, the “Preemergence herbicidal rating ECHCG” value ([12]; Rate 0.1250 kg/ha) was 9.0, the “Preemergence herbicidal rating ECHCG” value ([12]; Rate 0.2500 kg/ha) was 9.0 and the “Preemergence herbicidal rating SETVI” value ([13]; Rate 0.0620 kg/ha) was 9.0. The “Preemergence herbicidal rating SETVI” value ([13]; Rate 0.1250 kg/ha) was 9.0, the “Preemergence herbicidal rating SETVI” value ([13]; Rate 0.2500 kg/ha) was 9.0 and the “herbicidal rating, CYPIR” value ([14]; rate 0.0080 kg/ha) was 0.0. The “herbicidal rating, CYPIR” value ([14]; rate 0.0320 kg/ha) was 0.0, the “herbicidal rating, CYPIR” value ([14]; rate 0.1250 kg/ha) was 9.0 and the ABUTH herbicidal rating ([15]; rate 0.0320 kg/ha) was 9.0. The ABUTH herbicidal rating ([15]; rate 0.0620 kg/ha) was 9.0, the IPOHE herbicidal rating ([16]; rate 0.0320 kg/ha) was 9.0 and the IPOHE herbicidal rating ([16]; rate 0.0620 kg/ha) was 9.0. The AMBEL herbicidal rating ([17]; rate 0.0320 kg/ha) was 9.0, the AMBEL herbicidal rating ([17]; rate 0.0620 kg/ha) was 9.0 and the CHEAL herbicidal rating ([18]; rate 0.0320 kg/ha) was 9.0. The CHEAL herbicidal rating ([18]; rate 0.0620 kg/ha) was 9.0, the CASOB herbicidal rating ([19]; rate 0.0320 kg/ha) was 3.0 and the CASOB herbicidal rating ([19]; rate 0.0620 kg/ha) was 4.0.
